Data reported in patent US20110089073A1, “Methods And Compositions For Hydrophobic Modification Of Oral Cavity Surfaces” (The Procter & Gamble Company, priority 2009, published 2011).

How the values were obtained:
[1] = Water contact angle method on treated enamel chips; set-up: species or system bovine
Protocol: A water contact angle method is used to determine the degree of hydrophobicity imparted by the present compositions to tooth surfaces. […] The method uses polished bovine enamel chips that are cleaned using a prophy paste followed by an acetone wipe and water rinse in a sonicator. Chips are then allowed to air dry for 60-90 minutes, and then baseline water contact angles are measured using prop Shape Analysis System DSA 10-MK2 from KRUSS. Chips with baseline water contact angle of about 48.00±5.00 are selected and randomized into groups of three per treatment. Following randomization each group of three chips are treated with a solution or dentifrice slurry (1:3 ratio) containing the test ingredient followed by a water rinse. The chips are then soaked in human saliva for an hour at 37° C. After the saliva soak, the chips are removed, rinsed with water and air dried. Contact angle reading is taken after at least 2 hours of drying. Water or regular toothpaste (without organophosphate) are used as controls. […] An increase in contact angle (post-treatment value—baseline) represents increased hydrophobic character of the surface; a decrease represents increased hydrophilic character of the surface.

[2] = In vitro erosion cycling protocol (citric acid challenge, TMR); set-up: species or system human; conditions: teeth treated with compositions containing the organophosphate
[3] = Dissolution of pretreated hydroxy apatite powder in acetate buffer pH 4.5
Protocol: In this protocol, HAP powder is pretreated with dentifrice slurry supernatant (20 g supernate/200 mg HAP powder) followed by three times washing with water. After the last wash, 2 ml of water is added and vortexed to form a uniform slurry. In a separate beaker, 25 ml of 0.1M acetate buffer is prepared and pH adjusted to 4.5. To this buffer solution having initial pH of 4.5, a sample of 0.5 ml of pre-treated HAP slurry is added and dissolution profile of the pretreated HAP powder is monitored via changes in pH of the acetate buffer solution. The pH change is measured and recorded using a Brinkman Titrino titrator device for 30 minutes. With HAP dissolution, pH increases and the pH change is compared to that of a plain water treated HAP as control and is used to calculate percent inhibition of HAP mineral loss.

[4] = Table 1, change from baseline after treatment, 1 h saliva soak, concentrations as in label
[5] = Table 1, vs water treated HAP, concentrations as in label
[6] = Table 3, with or without water soluble hydrophilic compound

Molecule: CCCCCCCCCCCCOS(=O)(=O)[O-].[Na+] [1% SLS, sodium lauryl sulfate, reference compound]
- Δ Water Contact Angle [1, 4]: 0.23

Molecule: CCCCCCCCCCCCOP(=O)([O-])[O-].[Na+].[Na+] [Sodium dodecyl phosphate]
- Tooth mineral surface loss from acid exposure [2]: significantly less tooth mineral surface loss

Molecule: Potassium Laureth-3 Phosphate [1% Potassium Laureth-3 Phosphate]
- Δ Water Contact Angle [1, 4]: 23.2
- % Inhibition of HAP Surface Loss [3, 5]: 94.8%

Molecule: Sodium Dodeceth-9 Phosphate [1% Sodium Dodeceth-9 Phosphate]
- Δ Water Contact Angle [1, 4]: 16.43
- % Inhibition of HAP Surface Loss [3, 5]: 45.24%
- Tooth mineral surface loss from acid exposure [2]: significantly less tooth mineral surface loss

Molecule: Sodium Dodeceth-1 Phosphate [1% Sodium Dodeceth-1 Phosphate]
- Δ Water Contact Angle [1, 4]: 32.13
- Δ Water Contact Angle ([1]; Table 2, concentration 0.25%): 19.07
- Δ Water Contact Angle ([1]; Table 2, concentration 0.5%): 26.57
- Δ Water Contact Angle ([1]; Table 2, concentration 1.0%): 43.77
- Δ Water Contact Angle ([1]; Table 2, concentration 2.0%): 61.40
- Δ Water Contact Angle [1, 6]: 32.13
- % Inhibition of HAP Surface Loss [3, 5]: 94.5%
- % Inhibition of HAP Surface Loss ([3]; Table 2, concentration 0.25%): 58.56%
- % Inhibition of HAP Surface Loss ([3]; Table 2, concentration 0.5%): 75.69%
- % Inhibition of HAP Surface Loss ([3]; Table 2, concentration 1.0%): 92.03%
- % Inhibition of HAP Surface Loss ([3]; Table 2, concentration 2.0%): 92.83%
- % Inhibition of HAP Surface Loss [3, 6]: 94.49%
- Tooth mineral surface loss from acid exposure [2]: significantly less tooth mineral surface loss

Molecule: Potassium Laureth Phosphate [1% Potassium Laureth Phosphate]
- Δ Water Contact Angle [1, 4]: 45.43
- % Inhibition of HAP Surface Loss [3, 5]: 89.7%
